Test results as given in ChEMBL document CHEMBL1201862, “PubChem BioAssay data set” (2004).
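Results reflect a 48-hour exposure of cells in 96-well plates to compound at five concentrations. GI50: concentration for 50% inhibition of growth.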 Calls of active or inactive are those of the source. Cut-off read from the data, not from the text of the source: active = GI50 up to about 1.1 µM and inactive = higher.

Assays:
Assay in all cases: NCI-60 cell line screen, 48 h
HOP-92 = system: HOP-92
UO-31 = system: UO-31
SK-MEL-28 = system: SK-MEL-28
NCI-H522 = system: NCI-H522
SK-OV-3 = system: SK-OV-3
HOP-62 = system: HOP-62
SN12C = system: SN12C
OVCAR-5 = system: OVCAR-5
UACC-257 = system: UACC-257
MDA-N = system: MDA-N
RPMI-8226 = system: RPMI-8226
K562 = system: K562
SF-295 = system: SF-295
SW-620 = system: SW-620
Malme-3M = system: Malme-3M
OVCAR-3 = system: OVCAR-3
KM12 = system: KM12
SK-MEL-5 = system: SK-MEL-5
SR = system: SR
PC-3 = system: PC-3

Measured: GI50

O=C1/C(=C\c2cccc(Oc3ccccc3)c2)SC(c2ccccc2)N1c1ccccc1 (stereo not drawn)
inactive: HOP-92 60.7 µM | UO-31 > 100 µM | SK-MEL-28 81.1 µM | NCI-H522 17.1 µM | SK-OV-3 > 100 µM | HOP-62 > 100 µM | SN12C > 100 µM | OVCAR-5 > 100 µM | UACC-257 52.1 µM | MDA-N 30.1 µM | RPMI-8226 14.8 µM | K562 23.3 µM | SF-295 > 100 µM | SW-620 12.4 µM | Malme-3M > 100 µM | OVCAR-3 95.7 µM | KM12 46.9 µM | SK-MEL-5 27.1 µM | SR 11.9 µM

CC(=O)Oc1c(-c2ccccc2)[nH]c2cc([N+](=O)[O-])c(/C(Cl)=C/c3ccccc3)cc12
inactive: HOP-92 3.65 µM | UO-31 8 µM | SK-MEL-28 6.37 µM | NCI-H522 4.86 µM | SK-OV-3 26.9 µM | HOP-62 25.9 µM | SN12C 4.86 µM | OVCAR-5 4.22 µM | UACC-257 5.77 µM | RPMI-8226 3.08 µM | K562 3.82 µM | SF-295 4.08 µM | SW-620 8.89 µM | Malme-3M 4.1 µM | OVCAR-3 7.66 µM | KM12 3.97 µM | SK-MEL-5 1.89 µM | SR 3.57 µM

Fc1ccc(/N=N/N2CCCC2)cc1
inactive: HOP-92 > 100 µM | UO-31 27 µM | SK-MEL-28 94 µM | NCI-H522 > 100 µM | SK-OV-3 > 100 µM | HOP-62 > 100 µM | SN12C 51.1 µM | OVCAR-5 > 100 µM | UACC-257 57.4 µM | MDA-N 32.4 µM | RPMI-8226 22.3 µM | K562 4.66 µM | SF-295 8.04 µM | SW-620 > 100 µM | Malme-3M > 100 µM | OVCAR-3 > 100 µM | KM12 92.3 µM | SK-MEL-5 33.9 µM | SR 28.4 µM

Clc1ccc(-c2c(C3=NCCN3)nnn2-c2ccccc2)cc1
inactive: HOP-92 92 µM | UO-31 82.4 µM | SK-MEL-28 > 100 µM | NCI-H522 > 100 µM | SK-OV-3 > 100 µM | HOP-62 > 100 µM | SN12C > 100 µM | OVCAR-5 > 100 µM | UACC-257 > 100 µM | RPMI-8226 > 100 µM | K562 61.1 µM | SF-295 > 100 µM | SW-620 > 100 µM | Malme-3M > 100 µM | OVCAR-3 > 100 µM | KM12 > 100 µM | SK-MEL-5 97.1 µM | SR 49.2 µM

N#Cc1c(-c2ccccc2)c(/N=N/c2ccc(Cl)cc2)c(=O)n2c1[nH]c1ccccc12
inactive: UO-31 46.9 µM | SK-MEL-28 > 100 µM | PC-3 > 100 µM | NCI-H522 79.4 µM | SK-OV-3 94.2 µM | HOP-62 27.2 µM | SN12C > 100 µM | OVCAR-5 > 100 µM | UACC-257 > 100 µM | MDA-N > 100 µM | RPMI-8226 39.9 µM | SF-295 76.7 µM | SW-620 > 100 µM | Malme-3M > 100 µM | OVCAR-3 > 100 µM | KM12 44.2 µM | SK-MEL-5 55.8 µM

COc1ccc(CN(Cc2ccc(OC)cc2)C(=O)CC2(O)CCc3ccccc3C2)cc1 (stereo not drawn)
inactive: HOP-92 > 100 µM | UO-31 15.1 µM | SK-MEL-28 > 100 µM | PC-3 17.2 µM | NCI-H522 24 µM | SK-OV-3 > 100 µM | HOP-62 > 100 µM | SN12C > 100 µM | OVCAR-5 > 100 µM | UACC-257 42.8 µM | RPMI-8226 62.2 µM | K562 > 100 µM | SF-295 27.1 µM | SW-620 > 100 µM | Malme-3M 28.2 µM | OVCAR-3 > 100 µM | KM12 26 µM | SK-MEL-5 28.8 µM | SR 16 µM

Cn1c(=O)c2nc(N3CCCCC3)cnc2n(C)c1=O
inactive: HOP-92 > 100 µM | UO-31 > 100 µM | SK-MEL-28 > 100 µM | NCI-H522 > 100 µM | SK-OV-3 > 100 µM | HOP-62 > 100 µM | SN12C > 100 µM | OVCAR-5 > 100 µM | UACC-257 > 100 µM | RPMI-8226 > 100 µM | K562 > 100 µM | SF-295 > 100 µM | SW-620 > 100 µM | Malme-3M > 100 µM | OVCAR-3 > 100 µM | KM12 > 100 µM | SK-MEL-5 > 100 µM | SR > 100 µM
